Reference: patent US11034650B2, “Compounds useful for treating a Mannheimia haemolytica or Histophilus somni infection” (Intervet Inc., priority 2016, dated 2021)
Values after ≈ are worked out from the molar mass of the structure shown.

Columns and labels:
Assay type in all cases: cell-based
[1] = system: Mannheimia haemolytica MH 6357 (M7/2, reference strain, cattle infection strain); assay: MIC, broth-microdilution (CLSI VET01-A4), strain MH 6357; details: Mannheimia haemolytica strain MH 6357, broth-microdilution; unit assumed
Experimental: (§1) For example, representative compounds were tested against ***, Mannheimia haemolytica and Pasteurella multocida, using the conventional broth-dilution assay.
(§2) The Minimum inhibitory concentrations (MIC) of compounds according to the invention for a number of veterinary bacterial pathogens were determined by the broth-microdilution method according to CLSI document VET01-A4.
(§3) Microdilution trays containing a doubling dilution series of the test compound were used for the tests. The MIC results were interpreted according to the CLSI documents VET01-S3. The lowest concentration of compound at which no visible growth (i.e. no turbidity) detected by the unaided eye was recorded as the MIC.

[2] = system: Mannheimia haemolytica MH 6374 (ATCC 33396, reference strain); assay: MIC, broth-microdilution (CLSI VET01-A4), strain MH 6374; details: Mannheimia haemolytica strain MH 6374, broth-microdilution; unit assumed
Experimental: as §1, §2, §3

[3] = system: Mannheimia haemolytica MH 10720 (154, BRD field isolate); assay: MIC, broth-microdilution (CLSI VET01-A4), strain MH 10720; details: Mannheimia haemolytica strain MH 10720, broth-microdilution; unit assumed
Experimental: as §1, §2, §3

[4] = system: Mannheimia haemolytica MH 12587 (1071, BRD field isolate, macrolide-resistance: erm+, E+); assay: MIC, broth-microdilution (CLSI VET01-A4), strain MH 12587; details: Mannheimia haemolytica strain MH 12587, broth-microdilution; unit assumed
Experimental: as §1, §2, §3

[5] = system: Mannheimia haemolytica MH 13065 (XB0446-6003.9, BRD field isolate); assay: MIC, broth-microdilution (CLSI VET01-A4), strain MH 13065; details: Mannheimia haemolytica strain MH 13065, broth-microdilution; unit assumed
Experimental: as §1, §2, §3

[6] = system: Mannheimia haemolytica MH 13093 (XB0472-6014.1, BRD field isolate); assay: MIC, broth-microdilution (CLSI VET01-A4), strain MH 13093; details: Mannheimia haemolytica strain MH 13093, broth-microdilution; unit assumed
Experimental: as §1, §2, §3

[7] = system: Pasteurella multocida PM 6267 (P 2225 (L386), reference strain, mouse infection strain); assay: MIC, broth-microdilution (CLSI VET01-A4), strain PM 6267; details: Pasteurella multocida strain PM 6267, broth-microdilution; unit assumed
Experimental: as §1, §2, §3

[8] = system: Pasteurella multocida PM 10775 (080130003051, BRD field isolate); assay: MIC, broth-microdilution (CLSI VET01-A4), strain PM 10775; details: Pasteurella multocida strain PM 10775, broth-microdilution; unit assumed
Experimental: as §1, §2, §3

[9] = system: Pasteurella multocida PM 12080 (IV102277-0093, BRD field isolate); assay: MIC, broth-microdilution (CLSI VET01-A4), strain PM 12080; details: Pasteurella multocida strain PM 12080, broth-microdilution; unit assumed
Experimental: as §1, §2, §3

| SMILES | MIC PM 6267 [7] | MIC PM 10775 [8] | MIC PM 12080 [9] | MIC MH 6357 [1] | MIC MH 6374 [2] | MIC MH 10720 [3] | MIC MH 12587 [4] | MIC MH 13065 [5] | MIC MH 13093 [6] |
| --- | --- | --- | --- | --- | --- | --- | --- | --- | --- |
| CC(C)[C@H](NC(=O)c1ccc(C#Cc2ccc(CNCC(C)(C)C)cc2)cc1)C(=O)NO [Compound 95] | ≤ 0.1 µg/mL | ≤ 0.1 µg/mL | 0.4 µg/mL (≈ 0.918 µM) | 1.6 µg/mL (≈ 3.67 µM) | 3.1 µg/mL (≈ 7.12 µM) | 0.8 µg/mL (≈ 1.84 µM) | 6.3 µg/mL (≈ 14.5 µM) | 3.1 µg/mL (≈ 7.12 µM) | 3.1 µg/mL (≈ 7.12 µM) |
| CC(C)[C@H](NC(=O)c1ccc(C#Cc2ccc(CNC3CC3)cc2)cc1)C(=O)NO [Compound 92] | ≤ 0.1 µg/mL | ≤ 0.1 µg/mL | ≤ 0.1 µg/mL | 0.8 µg/mL (≈ 1.97 µM) | ≤ 0.1 µg/mL | ≤ 0.1 µg/mL | 0.2 µg/mL (≈ 0.493 µM) | ≤ 0.1 µg/mL | 0.2 µg/mL (≈ 0.493 µM) |
| CC[C@H](C)[C@H](NC(=O)c1ccc(C#Cc2ccc(CNC3CC3)cc2)cc1)C(=O)NO [Compound 112] | ≤ 0.1 µg/mL | ≤ 0.1 µg/mL | 0.2 µg/mL (≈ 0.477 µM) | 1.6 µg/mL (≈ 3.81 µM) | 0.4 µg/mL (≈ 0.953 µM) | ≤ 0.1 µg/mL | 0.8 µg/mL (≈ 1.91 µM) | 0.4 µg/mL (≈ 0.953 µM) | 0.4 µg/mL (≈ 0.953 µM) |
| CC(C)(C)C1CCN(Cc2ccc(C#Cc3ccc(C(=O)N[C@@H](CO)C(=O)NO)cc3)cc2)CC1 [Compound 79] | 0.4 µg/mL (≈ 0.838 µM) | ≤ 0.1 µg/mL | 1.6 µg/mL (≈ 3.35 µM) | 12.5 µg/mL (≈ 26.2 µM) | 25 µg/mL (≈ 52.3 µM) | 3.1 µg/mL (≈ 6.49 µM) | 25 µg/mL (≈ 52.3 µM) | 12.5 µg/mL (≈ 26.2 µM) | 25 µg/mL (≈ 52.3 µM) |

Now from value to molecule, other results behind:

| MIC PM 6267 [7] | MIC PM 10775 [8] | MIC PM 12080 [9] | SMILES | MIC MH 6357 [1] | MIC MH 6374 [2] | MIC MH 10720 [3] | MIC MH 12587 [4] | MIC MH 13065 [5] | MIC MH 13093 [6] |
| --- | --- | --- | --- | --- | --- | --- | --- | --- | --- |
| 3.1 µg/mL (≈ 6.05 µM) | 0.4 µg/mL (≈ 0.78 µM) | 3.1 µg/mL (≈ 6.05 µM) | CC[C@H](C)[C@H](NC(=O)c1ccc(C#Cc2ccc(CNCc3ccc(N(C)C)cc3)cc2)cc1)C(=O)NO [Compound 130] | 3.1 µg/mL (≈ 6.05 µM) | 3.1 µg/mL (≈ 6.05 µM) | 1.6 µg/mL (≈ 3.12 µM) | 12.5 µg/mL (≈ 24.4 µM) | 6.3 µg/mL (≈ 12.3 µM) | 6.3 µg/mL (≈ 12.3 µM) |
| 0.2 µg/mL (≈ 0.412 µM) | ≤ 0.1 µg/mL | 0.4 µg/mL (≈ 0.824 µM) | COc1ccc(CNCc2ccc(C#Cc3ccc(C(=O)N[C@H](C(=O)NO)C(C)C)cc3)cc2)cc1 [Compound 107] | 3.1 µg/mL (≈ 6.38 µM) | 0.8 µg/mL (≈ 1.65 µM) | 0.4 µg/mL (≈ 0.824 µM) | 3.1 µg/mL (≈ 6.38 µM) | 0.8 µg/mL (≈ 1.65 µM) | 0.8 µg/mL (≈ 1.65 µM) |
| 0.4 µg/mL (≈ 0.953 µM) | ≤ 0.1 µg/mL | 0.8 µg/mL (≈ 1.91 µM) | C=CCNCc1ccc(C#Cc2ccc(C(=O)N[C@H](C(=O)NO)[C@@H](C)CC)cc2)cc1 [Compound 113] | 3.1 µg/mL (≈ 7.39 µM) | 0.8 µg/mL (≈ 1.91 µM) | 0.4 µg/mL (≈ 0.953 µM) | 3.1 µg/mL (≈ 7.39 µM) | 1.6 µg/mL (≈ 3.81 µM) | 3.1 µg/mL (≈ 7.39 µM) |
| 3.1 µg/mL (≈ 6.8 µM) | 0.8 µg/mL (≈ 1.76 µM) | 6.3 µg/mL (≈ 13.8 µM) | CC(C)[C@H](NC(=O)c1ccc(C#Cc2cccc(CNCc3ccccc3)c2)cc1)C(=O)NO [Compound 40] | 6.3 µg/mL (≈ 13.8 µM) | 3.1 µg/mL (≈ 6.8 µM) | 6.3 µg/mL (≈ 13.8 µM) | 12.5 µg/mL (≈ 27.4 µM) | 6.3 µg/mL (≈ 13.8 µM) | 6.3 µg/mL (≈ 13.8 µM) |
| ≤ 0.1 µg/mL | ≤ 0.1 µg/mL | 0.2 µg/mL (≈ 0.438 µM) | CC(C)[C@H](NC(=O)c1ccc(C#Cc2ccc(CNCc3ccncc3)cc2)cc1)C(=O)NO [Compound 110] | 1.6 µg/mL (≈ 3.5 µM) | 0.4 µg/mL (≈ 0.876 µM) | ≤ 0.1 µg/mL | 0.8 µg/mL (≈ 1.75 µM) | 0.4 µg/mL (≈ 0.876 µM) | 0.4 µg/mL (≈ 0.876 µM) |
| 0.2 µg/mL (≈ 0.422 µM) | ≤ 0.1 µg/mL | 1.6 µg/mL (≈ 3.38 µM) | COc1ccc(CNCc2ccc(C#Cc3ccc(C(=O)N[C@@H](CO)C(=O)NO)cc3)cc2)cc1 [Compound 88] | 6.3 µg/mL (≈ 13.3 µM) | 1.6 µg/mL (≈ 3.38 µM) | 1.6 µg/mL (≈ 3.38 µM) | 6.3 µg/mL (≈ 13.3 µM) | 3.1 µg/mL (≈ 6.55 µM) | 12.5 µg/mL (≈ 26.4 µM) |
| 0.4 µg/mL (≈ 1.02 µM) | ≤ 0.1 µg/mL | 1.6 µg/mL (≈ 4.07 µM) | C=CCNCc1ccc(C#Cc2ccc(C(=O)N[C@@H](CO)C(=O)NO)cc2)cc1 [Compound 73] | 3.1 µg/mL (≈ 7.88 µM) | 3.1 µg/mL (≈ 7.88 µM) | 3.1 µg/mL (≈ 7.88 µM) | 6.3 µg/mL (≈ 16 µM) | 3.1 µg/mL (≈ 7.88 µM) | 3.1 µg/mL (≈ 7.88 µM) |
